IC50 data for 36 compounds are collected here from BindingDB's records for doi:10.1021/jm00078a018 (Merck Research Laboratories, 1994).

Molecules are shown by their SMILES. Counter-ions that a name gives are not always drawn.

A short description of this assay: Inhibition of binding of [125I]-CCK-8 to the cholecystokinin type B receptor.
As for `COc1ccc(NC(=O)NC2N=C(c3ccccc3)c3ccccc3N(C)C2=O)cc1` (stereo unspecified) [1-(4-Methoxy-phenyl)-3-(1-methyl-2-oxo-5-phenyl-2,3-dihydro-1H-benzo[e][1,4]diazepin-3-yl)-urea], the IC50 was 26 nM.
The figure for `CN1C(=O)C(NC(=O)Nc2ccc(N)nc2)N=C(c2ccccc2)c2ccccc21` (stereo unspecified) [1-(6-Amino-pyridin-3-yl)-3-(1-methyl-2-oxo-5-phenyl-2,3-dihydro-1H-benzo[e][1,4]diazepin-3-yl)-urea] is 500 nM; for `CN1C(=O)C(NC(=O)Nc2ccc(Cl)nc2)N=C(c2ccccc2)c2ccccc21` (stereo unspecified) [1-(6-Chloro-pyridin-3-yl)-3-(1-methyl-2-oxo-5-phenyl-2,3-dihydro-1H-benzo[e][1,4]diazepin-3-yl)-urea] it is 46 nM.
Next, `COc1ccc(NC(=O)NC2N=C(c3ccccc3)c3ccccc3N(C)C2=O)cn1` (stereo unspecified) [1-(6-Methoxy-pyridin-3-yl)-3-(1-methyl-2-oxo-5-phenyl-2,3-dihydro-1H-benzo[e][1,4]diazepin-3-yl)-urea]: 460 nM.
The figure for `CN1C(=O)C(NC(=O)Nc2ccc3c(c2)OCO3)N=C(c2ccccc2)c2ccccc21` (stereo unspecified) [1-Benzo[1,3]dioxol-5-yl-3-(1-methyl-2-oxo-5-phenyl-2,3-dihydro-1H-benzo[e][1,4]diazepin-3-yl)-urea] is 26 nM; for `CN1C(=O)C(NC(=O)NCc2ccccc2)N=C(c2ccccc2)c2ccccc21` (stereo unspecified) [1-Benzyl-3-(1-methyl-2-oxo-5-phenyl-2,3-dihydro-1H-benzo[e][1,4]diazepin-3-yl)-urea] it is 860 nM; for `CN1C(=O)C(NC(=O)Nc2cccc(-c3ccccc3)c2)N=C(c2ccccc2)c2ccccc21` (stereo unspecified) [1-Biphenyl-3-yl-3-(1-methyl-2-oxo-5-phenyl-2,3-dihydro-1H-benzo[e][1,4]diazepin-3-yl)-urea] it is 112 nM.
`CN1C(=O)C(NC(=O)NC2CCCCC2)N=C(c2ccccc2)c2ccccc21` (stereo unspecified) [1-Cyclohexyl-3-(1-methyl-2-oxo-5-phenyl-2,3-dihydro-1H-benzo[e][1,4]diazepin-3-yl)-urea] yielded a 50% inhibitory concentration (IC50) of 3000 nM.
Next, `CN1C(=O)C(NC(=O)Nc2ccc3c(c2)CCC3)N=C(c2ccccc2)c2ccccc21` (stereo unspecified) [1-Indan-5-yl-3-(1-methyl-2-oxo-5-phenyl-2,3-dihydro-1H-benzo[e][1,4]diazepin-3-yl)-urea]: 2.7 nM; `Cc1cccc(NC(=O)NC2N=C(c3ccccc3)c3ccccc3N(Cc3ncc[nH]3)C2=O)c1` (stereo unspecified) [1-[1-(1H-Imidazol-2-ylmethyl)-2-oxo-5-phenyl-2,3-dihydro-1H-benzo[e][1,4]diazepin-3-yl]-3-m-tolyl-urea]: 59 nM.
The figure for `Cc1cccc(NC(=O)NC2N=C(c3ccccc3)c3ccccc3N(Cc3cnc[nH]3)C2=O)c1` (stereo unspecified) [1-[1-(1H-Imidazol-4-ylmethyl)-2-oxo-5-phenyl-2,3-dihydro-1H-benzo[e][1,4]diazepin-3-yl]-3-m-tolyl-urea] is 7.9 nM; for `COc1cccc(NC(=O)NC2N=C(c3ccccc3)c3ccccc3N(CCN(C)C)C2=O)c1` (stereo unspecified) [1-[1-(2-Dimethylamino-ethyl)-2-oxo-5-phenyl-2,3-dihydro-1H-benzo[e][1,4]diazepin-3-yl]-3-(3-methoxy-phenyl)-urea] it is 192 nM; for `Cc1cccc(NC(=O)NC2N=C(c3ccccc3)c3ccccc3N(CCN(C)C)C2=O)c1` (stereo unspecified) [1-[1-(2-Dimethylamino-ethyl)-2-oxo-5-phenyl-2,3-dihydro-1H-benzo[e][1,4]diazepin-3-yl]-3-m-tolyl-urea] it is 26 nM.
The figure for `Cc1cccc(NC(=O)NC2N=C(c3ccccc3)c3ccccc3N(CCO)C2=O)c1` (stereo unspecified) [1-[1-(2-Hydroxy-ethyl)-2-oxo-5-phenyl-2,3-dihydro-1H-benzo[e][1,4]diazepin-3-yl]-3-m-tolyl-urea] is 44 nM; for `O=C(Nc1ccc(Cl)cc1)NC1N=C(c2ccccc2)c2ccccc2N(C[C@@H](O)CCl)C1=O` (stereo partly specified) [1-[1-(3-Chloro-2-hydroxy-propyl)-2-oxo-5-phenyl-2,3-dihydro-1H-benzo[e][1,4]diazepin-3-yl]-3-(4-chloro-phenyl)-urea] it is 6 nM; for `Cc1cccc(NC(=O)NC2N=C(c3ccccc3)c3ccccc3N(Cc3nnc(C)[nH]3)C2=O)c1` (stereo unspecified) [1-[1-(5-Methyl-4H-[1,2,4]triazol-3-ylmethyl)-2-oxo-5-phenyl-2,3-dihydro-1H-benzo[e][1,4]diazepin-3-yl]-3-m-tolyl-urea] it is 9.7 nM.
`CN1C(=O)C(NC(=O)NCc2cccc(C(C)(C)O)c2)N=C(c2ccccc2)c2ccccc21` (stereo unspecified) [1-[3-(1-Hydroxy-1-methyl-ethyl)-benzyl]-3-(1-methyl-2-oxo-5-phenyl-2,3-dihydro-1H-benzo[e][1,4]diazepin-3-yl)-urea] had a half-maximal inhibitory concentration (IC50) of 5.9 nM.
As for `CN1C(=O)C(NC(=O)NC(C)(C)C)N=C(c2ccccc2)c2ccccc21` (stereo unspecified) [1-tert-Butyl-3-(1-methyl-2-oxo-5-phenyl-2,3-dihydro-1H-benzo[e][1,4]diazepin-3-yl)-urea], the IC50 turned out to be 38000 nM.
As for `Cc1cccc(NC(=O)NC2N=C(c3ccccc3)c3ccccc3N(CC(=O)N3CCN(C)CC3)C2=O)c1` (stereo unspecified) [1-{1-[2-(4-Methyl-piperazin-1-yl)-2-oxo-ethyl]-2-oxo-5-phenyl-2,3-dihydro-1H-benzo[e][1,4]diazepin-3-yl}-3-m-tolyl-urea; hydrochloride], the IC50 came to 3.5 nM.
Next, `Cc1cccc(NC(=O)NC2N=C(c3ccccc3)c3ccccc3N(CC(=O)ON3CCC[C@@H]3C(=O)O)C2=O)c1` (stereo partly specified) [1-{2-[2-Oxo-5-phenyl-3-(3-m-tolyl-ureido)-2,3-dihydro-benzo[e][1,4]diazepin-1-yl]-acetoxy}-pyrrolidine-2-carboxylic acid]: 130 nM.
Next, `Cc1cccc(NC(=O)NC2N=C(c3ccccc3)c3ccccc3N(CC(=O)Nc3ccncc3)C2=O)c1` (stereo unspecified) [2-[2-Oxo-5-phenyl-3-(3-m-tolyl-ureido)-2,3-dihydro-benzo[e][1,4]diazepin-1-yl]-N-pyridin-4-yl-acetamide]: 48 nM; `Cc1ccc(NC(=O)NC2N=C(c3ccccc3)c3ccccc3N(CC(=O)Nc3ccncc3)C2=O)cc1` (stereo unspecified) [2-[2-Oxo-5-phenyl-3-(3-p-tolyl-ureido)-2,3-dihydro-benzo[e][1,4]diazepin-1-yl]-N-pyridin-4-yl-acetamide]: 190 nM.
`CCN(CC)C(=O)CN1C(=O)C(NC(=O)Nc2ccccc2Cl)N=C(c2ccccc2)c2ccccc21` (stereo unspecified) [2-{3-[3-(2-Chloro-phenyl)-ureido]-2-oxo-5-phenyl-2,3-dihydro-benzo[e][1,4]diazepin-1-yl}-N,N-diethyl-acetamide]: the IC50 was 3.8 nM.
Next, `CCN(CC)C(=O)CN1C(=O)C(NC(=O)Nc2ccc(Cl)cc2)N=C(c2ccccc2)c2ccccc21` (stereo unspecified) [2-{3-[3-(4-Chloro-phenyl)-ureido]-2-oxo-5-phenyl-2,3-dihydro-benzo[e][1,4]diazepin-1-yl}-N,N-diethyl-acetamide]: 0.6 nM; `CCN(CC)C(=O)C(C)N1C(=O)C(NC(=O)Nc2ccc(Cl)cc2)N=C(c2ccccc2)c2ccccc21` (stereo unspecified) [2-{3-[3-(4-Chloro-phenyl)-ureido]-2-oxo-5-phenyl-2,3-dihydro-benzo[e][1,4]diazepin-1-yl}-N,N-diethyl-propionamide]: 22 nM.
Consider `CCNC(=O)CN1C(=O)C(NC(=O)Nc2ccc(Cl)cc2)N=C(c2ccccc2)c2ccccc21` (stereo unspecified) [2-{3-[3-(4-Chloro-phenyl)-ureido]-2-oxo-5-phenyl-2,3-dihydro-benzo[e][1,4]diazepin-1-yl}-N-ethyl-acetamide], for which the half-inhibitory concentration (IC50) worked out at 11 nM.
Next, `CN1C(=O)C(NC(=O)Nc2cccc(C(=O)O)c2)N=C(c2ccccc2)c2ccccc21` (stereo unspecified) [3-[3-(1-Methyl-2-oxo-5-phenyl-2,3-dihydro-1H-benzo[e][1,4]diazepin-3-yl)-ureido]-benzoic acid]: 9.7 nM; `COC(=O)c1cccc(NC(=O)N[C@@H]2N=C(c3ccccc3)c3ccccc3N(C)C2=O)c1` [3-[3-((R)-1-Methyl-2-oxo-5-phenyl-2,3-dihydro-1H-benzo[e][1,4]diazepin-3-yl)-ureido]-benzoic acid methyl ester]: 8 nM.
Compound `CCOC(=O)CCN1C(=O)C(NC(=O)Nc2cccc(OC)c2)N=C(c2ccccc2)c2ccccc21` (stereo unspecified) [3-{3-[3-(3-Methoxy-phenyl)-ureido]-2-oxo-5-phenyl-2,3-dihydro-benzo[e][1,4]diazepin-1-yl}-propionic acid ethyl ester] returned an IC50 of 1 nM.
Next, `COc1cccc(NC(=O)NC2N=C(c3ccccc3)c3ccccc3N(CCC(=O)O)C2=O)c1` (stereo unspecified) [3-{3-[3-(3-Methoxy-phenyl)-ureido]-2-oxo-5-phenyl-2,3-dihydro-benzo[e][1,4]diazepin-1-yl}-propionic acid]: 250 nM; `CCOC(=O)CCN1C(=O)C(NC(=O)Nc2ccc(Cl)cc2)N=C(c2ccccc2)c2ccccc21` (stereo unspecified) [3-{3-[3-(4-Chloro-phenyl)-ureido]-2-oxo-5-phenyl-2,3-dihydro-benzo[e][1,4]diazepin-1-yl}-propionic acid ethyl ester]: 5.9 nM.
In turn, `CN1C(=O)C(NC(=O)Nc2ccc(C(=O)O)cc2)N=C(c2ccccc2)c2ccccc21` (stereo unspecified) [4-[3-(1-Methyl-2-oxo-5-phenyl-2,3-dihydro-1H-benzo[e][1,4]diazepin-3-yl)-ureido]-benzoic acid] came in with an IC50 of over 100 nM.
Next, `CN1C(=O)C(NC(N)=O)N=C(c2ccccc2)c2ccccc21` (stereo unspecified) [(1-Methyl-2-oxo-5-phenyl-2,3-dihydro-1H-benzo[e][1,4]diazepin-3-yl)-urea]: over 100000 nM; `COc1cccc(NC(=O)NC2N=C(c3ccccc3)c3ccccc3N(CC[N+](C)(C)C)C2=O)c1` (stereo unspecified) [(2-{3-[3-(3-Methoxy-phenyl)-ureido]-2-oxo-5-phenyl-2,3-dihydro-benzo[e][1,4]diazepin-1-yl}-ethyl)-trimethyl-ammonium; iodide]: 1100 nM.
`CN1C(=O)C(NC(=O)Nc2ccc(Cl)cc2)N=C(c2ccccc2)c2ccccc21` [(R)-1-(4-Chloro-phenyl)-3-(1-methyl-2-oxo-5-phenyl-2,3-dihydro-1H-benzo[e][1,4]diazepin-3-yl)-urea] gave an IC50 of 81 nM.
Next, `CCN(CC)CC(=O)OCCN1C(=O)C(NC(=O)Nc2cccc(C)c2)N=C(c2ccccc2)c2ccccc21` (stereo unspecified) [Diethylamino-acetic acid 2-[2-oxo-5-phenyl-3-(3-m-tolyl-ureido)-2,3-dihydro-benzo[e][1,4]diazepin-1-yl]-ethyl ester]: 5.6 nM.
